This is an account of results in patent publication US20110275661A1, “TRICYCLIC NITROGEN COMPOUNDS USED AS ANTIBACTERIALS” (Glaxo Group Limited, priority 2008, published 2011).

Where a name gives a salt, the structure may show the parent alone. Read-outs that look alike come from different tables or passages of the source. Some results are limits rather than exact numbers.

This assay concerns Mycobacterium tuberculosis H37Rv. Description: Mycobacterium tuberculosis H37Rv Inhibition Assay. The following applies: ATCC 25618 / H37Rv, read-out: MIC value. In kind it is cell-based.
The mark [1] stands for this setting: H37Rv strain (ATCC25618), Middlebrook 7H9+ADC medium, resazurin fluorescence.

For orientation: MIC means the lowest concentration that inhibits growth of the organism. As to `Cc1cc(=O)n2c3c1ccc(=O)n3[C@H](CN1CCC(NCc3cc4c(cn3)OCCC4)CC1)C2` [Example 1, (1R)-1-({4-[(3,4-dihydro-2H-pyrano[2,3-c]pyridin-6-ylmethyl)amino]-1-piperidinyl}methyl)-6-methyl-1,2-dihydro-4H,9H-imidazo[1,2,3-4]-1,8-naphthyridine-4,9-dione hydrochloride], the MIC under setting [1] was less than 2 µg/mL.

For `Cc1cc(=O)n2c3c1ccc(=O)n3[C@H](CN1CCC(NCc3cc4c(cn3)OCCS4)CC1)C2` [Example 2, (1R)-1-({4-[(2,3-dihydro[1,4]oxathiino[2,3-c]pyridin-7-ylmethyl)amino]-1-piperidinyl}methyl)-6-methyl-1,2-dihydro-4H,9H-imidazo[1,2,3-ij]-1,8-naphthyridine-4,9-dione hydrochloride], the MIC is less than 2 µg/mL.

With `Cc1cc(=O)n2c3c1ccc(=O)n3[C@H](CN1CCC(NCc3cc4c(cn3)OCCO4)CC1)C2` [Example 3, (1R)-1-({4-[(2,3-dihydro[1,4]dioxino[2,3-c]pyridin-7-ylmethyl)amino]-1-piperidinyl}methyl)-6-methyl-1,2-dihydro-4H,9H-imidazo[1,2,3-ij]-1,8-naphthyridine-4,9-dione hydrochloride], the MIC was more than 2.5 µg/mL.

Consider `Cc1cc(=O)n2c3c1ccc(=O)n3[C@H](CN1CCC(NCc3cc4c(cn3)OCS4)CC1)C2` [Example 4, (1R)-6-methyl-1-({4-[([1,3]oxathiolo[5,4-c]pyridin-6-ylmethyl)amino]-1-piperidinyl}methyl)-1,2-dihydro-4H,9H-imidazo[1,2,3-4]-1,8-naphthyridine-4,9-dione hydrochloride], for which the MIC under setting [1] was less than 2 µg/mL.
